{
  "source": "patent US8088623B2",
  "about": "“Dominant selection marker for the transformation of fungi” (priority 2003, dated 2012)",
  "key": {"[1]": {"test_system": "Pichia pastoris transformant HWA3", "assay": "Soraphen A sensitivity of transformant HWA3 (accA, accC, accD) on MM plates", "type": "cell-based", "conditions": "30° C., six days", "experimental": "(§1) Transformation of spheroplasts was carried out with 10 μg of Sal I-linearized plasmid pAO815-ACC3 or pAO815-ACC4 following the manufacturer's instructions. Transformants were selected on RDB plates and in a second selection round the obtained histidine prototroph clones were tested for Soraphen A sensitivity on MM plates containing Soraphen A (0-0.1 μg/ml)."}, "bacteria or prokaryotes": {"test_system": "bacteria or prokaryotes", "conditions": "cited from earlier work"}, "[2]": {"test_system": "Pichia pastoris transformant HWA4", "assay": "Soraphen A sensitivity of transformant HWA4 (accA-D) on MM plates", "type": "cell-based", "conditions": "30° C., six days", "experimental": "as §1"}, "Ustilago zeae": {"test_system": "Ustilago zeae", "conditions": "cited from earlier work"}, "[3]": {"test_system": "MF-ACC purified from rat liver", "conditions": "cited from earlier work"}, "[4]": {"test_system": "Pichia pastoris transformant HWA3p", "conditions": "MM plates, 30° C., six days", "description": "For transformation by electroporation, 3-12 μg of Sal I-linearized plasmid pPIC3.5K-BCCP was mixed with the competent cells and pulsed in 0.1 cm electroporation cuvettes at 1.5 kV, 25 μF, and 200Ω using a Gene Pulser (Bio-Rad). Immediately after the pulse, 1 ml of 1 M sorbitol was added to the cuvette and the cells were incubated for regeneration for 1 hour at room temperature. The cell suspension was aliquoted into two sterile Eppendorf tubes, 0.5 ml of YPD medium or MM medium was added, respectively, and the cells were incubated for 3 more hours at room temperature thereby being shaked. 50-200 μl of the aliquotes in YPD were spread on YPD-G418 plates to select G418 resistant transformants, whereas aliquots in MM medium were spread on MM-agar containing 0.02 μg/ml Soraphen A.\nHistidine prototrophic or G418 resistant transformants were grown overnight in 20 ml MM medium. The cells were harvested by centrifugation and spotted onto MM plates containing different concentrations of Soraphen A (0-0.1 μg/ml). Duplicated plates were incubated at 30° C. for six days under daily addition of methanol."}, "[5]": {"test_system": "acetyl-CoA carboxylase (ACC) of yeast and filamentous fungi", "conditions": "cited from earlier work"}, "Mucor hiemalis": {"test_system": "Mucor hiemalis", "conditions": "cited from earlier work"}, "MS-ACC from E. coli": {"target": "T1, MS-ACC from E. coli (Escherichia coli, UniProt P24182)", "T1 construct": "expressed in transfected cells; host or cells: Pichia pastoris GS115 transformed with pAO815-ACC4 (strain HWA4)", "assay": "Sensitivity of prokaryotic MS-ACC to inhibition"}, "[6]": {"test_system": "filamentous fungi and yeasts", "conditions": "growth of numerous filamentous fungi and yeasts; cited from earlier work"}, "[7]": {"test_system": "Pichia pastoris strain GS115", "assay": "Soraphen A sensitivity of recipient strain GS115 on MM plates", "type": "cell-based", "conditions": "point and surface inoculation, 30° C., six days", "experimental": "Two methods were used to determine the concentration of Soraphen A inhibitory to the growth of P. pastoris GS115. On the one hand MM plates containing 0 to 0.1 μg/ml Soraphen A were locally inoculated with 10^6 to 10^2 cells. On the other hand 5000 cells were streaked onto such plates. Inokulations were incubated in duplicate at 30° C. for six days; 100 μl of 100% methanol was added daily to the lid of the inverted plates."}, "[8]": {"test_system": "MF-ACC purified from Ustilago maydis", "conditions": "cited from earlier work"}},
  "data": [
    {"smiles": "CO[C@H]1CCCC[C@@H](c2ccccc2)OC(=O)[C@@H](C)[C@@]2(O)O[C@H]([C@@H](C)[C@H](O)[C@H]2OC)[C@@H](C)/C=C/[C@H]1OC", "note": "[Soraphen A]", "values": [
      {"measurement": "Soraphen A concentration giving no growth", "setting": "[1]", "result": "≤ 0.02", "unit": "µg/mL"},
      {"measurement": "sensitivity to Soraphen", "setting": "bacteria or prokaryotes", "result": "generally not sensitive"},
      {"measurement": "Soraphen A concentration not inhibiting growth (undiminished growth)", "setting": "[2]", "result": "> 0.1", "unit": "µg/mL"},
      {"measurement": "MIC value", "setting": "Ustilago zeae", "result": 4, "unit": "µg/mL"},
      {"measurement": "inhibition of MF-ACC activity in vitro", "setting": "[3]", "result": "inhibit"},
      {"measurement": "Soraphen A concentration up to which resistance is fully developed", "setting": "[4]", "result": "> 0.1", "unit": "µg/mL"},
      {"measurement": "inhibition of acetyl-CoA carboxylase (ACC) activity", "setting": "[5]", "result": "inhibits"},
      {"measurement": "MIC value", "setting": "Mucor hiemalis", "result": 0.03, "unit": "µg/mL"},
      {"measurement": "sensitivity of MS-ACC to inhibition by Soraphen A", "setting": "MS-ACC from E. coli", "result": "insensitive"},
      {"measurement": "MIC values", "setting": "[6]", "result": "below 1 ug/ml"},
      {"measurement": "Soraphen A concentration leading to complete inhibition of growth", "setting": "[7]", "result": "≤ 0.02", "unit": "µg/mL"},
      {"measurement": "inhibition of MF-ACC activity in vitro", "setting": "[8]", "result": "inhibit"}
    ]}
  ]
}
